Source: PubChem BioAssay (NCI)
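All cell lines were grown in 96-well plates and treated with compound for 48 hours. At the GI50, growth is halved. TGI denotes the concentration required for complete inhibition of growth.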

Columns and labels:
Assay in all cases: DTP human tumour cell line panel, 48 h
[1] = system: PC-3 prostate
[2] = system: DU-145 prostate
[3] = system: KM12 colon
[4] = system: OVCAR-5 ovarian
[5] = system: MALME-3M melanoma
[6] = system: MOLT-4 leukemia
[7] = system: OVCAR-4 ovarian
[8] = system: SNB-75 CNS
[9] = system: TK-10 renal
[10] = system: RPMI-8226 leukemia
[11] = system: RXF 393 renal
[12] = system: U251 CNS
[13] = system: M14 melanoma
[14] = system: UO-31 renal
[15] = system: COLO 205 colon
[16] = system: IGROV1 ovarian
[17] = system: SK-MEL-5 melanoma
[18] = system: MDA-MB-231 breast
[19] = system: EKVX NSCLC
[20] = system: HS 578T breast
[21] = system: HCT-116 colon
[22] = system: SNB-19 CNS
[23] = system: T-47D breast
[24] = system: A549 NSCLC
[25] = system: NCI-H23 lung
[26] = system: SF-268 CNS
[27] = system: HOP-92 NSCLC
[28] = system: HOP-62 NSCLC
[29] = system: UACC-62 melanoma

SMILES: CN(CCCN)CCCNc1nc2ccccc2c2[nH]c3ccccc3c12
- TGI [1]: 1.28 µM
- GI50 [2]: 0.3 µM
- TGI [2]: 10.3 µM
- GI50 [3]: 0.0513 µM
- TGI [3]: 0.314 µM
- GI50 [4]: 0.18 µM
- TGI [4]: 0.652 µM
- GI50 [5]: 0.115 µM
- TGI [5]: 0.325 µM
- GI50 [6]: 0.186 µM
- TGI [6]: 1.24 µM
- GI50 [7]: 0.201 µM
- TGI [7]: 0.614 µM
- GI50 [8]: 0.272 µM
- TGI [8]: 0.943 µM
- GI50 [9]: 0.54 µM
- TGI [9]: 3.16 µM
- GI50 [10]: 0.207 µM
- TGI [10]: 0.947 µM
- GI50 [11]: 0.109 µM
- TGI [11]: 0.515 µM
- GI50 [12]: 0.159 µM
- TGI [12]: 1.07 µM
- GI50 [13]: 0.696 µM
- TGI [13]: 1.93 µM
- GI50 [14]: 0.337 µM
- TGI [14]: 1.34 µM
- GI50 [15]: 0.178 µM
- TGI [15]: 0.509 µM
- GI50 [16]: 0.329 µM
- TGI [16]: 1.21 µM
- GI50 [17]: 0.747 µM
- TGI [17]: 1.98 µM
- GI50 [18]: 0.231 µM
- TGI [18]: 0.774 µM
- GI50 [19]: 1.44 µM
- TGI [19]: 8.2 µM
- GI50 [20]: 0.0765 µM
- TGI [20]: 0.334 µM
- GI50 [21]: 0.173 µM
- TGI [21]: 1.2 µM
- GI50 [22]: 0.229 µM
- TGI [22]: 0.943 µM
- GI50 [23]: 0.283 µM
- TGI [23]: 0.772 µM
- GI50 [24]: 0.16 µM
- TGI [24]: 2.22 µM
- GI50 [25]: 0.201 µM
- TGI [25]: 0.57 µM
- GI50 [26]: 0.241 µM
- TGI [26]: 1.07 µM
- GI50 [27]: 0.208 µM
- TGI [27]: 0.736 µM
- GI50 [28]: 0.179 µM
- TGI [28]: 0.683 µM
- GI50 [29]: 0.285 µM
- TGI [29]: 0.692 µM
